According to patent publication US8546435B2, “Triazole derivatives with improved receptor activity and bioavailability properties as ghrelin antagonists of growth hormone secretagogue receptors” (AEterna Zentaris GmbH, priority 2010, dated 2013):
Where two headings read alike, the source gives them in different places.

What was measured:
[1] = target: T1, Human Ghrelin Receptor (GHS-R 1A) (Homo sapiens (Human), UniProt Q92847); assay: CRE/Luc reporter gene assay, antagonist; format: cell-based; settings: 6 h, 1 μM rolipram
Text: (§1) Mouse LTK-cells (ATCC CCL-1.3) were stably transfected with a plasmid containing the CMV minimal promoter (CMVmin) linked to three cAMP response elements (CRE) followed by a luciferase reporter gene. Based on this parental cell line, single cell clones stably overexpressing the human, rat or mouse GHS-R 1A have been established and characterized with respect to suitability for the different assay formats.
For the CRE/Luc reporter gene assay, the mouse LTK-cells stably expressing the human GHS-1RA and a luciferase reporter gene under the control of CRE elements and the CMV minimal promoter were incubated for 6 h with 1 μM rolipram in the presence of different concentrations of AEZS-130. Subsequently, cells were lysed and ATP bioluminescence was measured in the luminescence mode on FlexStation3 (Molecular Devices).
(§2) IC50 values were determined by using the GraphPad Prism analysis program (GraphPad Software).
(§3) Values given are either single measurements or mean values of up to nine independent experiments performed in duplicate (binding) or quadruplicate (functional assays) measurements.

[2] = target: T1, Human Ghrelin Receptor (GHS-R 1A); assay: Calcium release, antagonist; format: cell-based; settings: 15 minutes preincubation, then ghrelin
Text: as §1
(§4) For determination of calcium release the respective cell line was loaded with Fluo-4 NW Calcium Assay Kit (Moleculare Probes/Invitrogen # F10741) for 80 min @ 37° C. After 15 minutes of preincubation with different concentrations of the test compounds ghrelin was added and the signal was monitored for 60 seconds by a FlexStation3 microplate reader (Molecular Devices).
as §2, §3

[3] = target: T1, Human Ghrelin Receptor (GHS-R 1A); assay: Competitive binding, iodinated ghrelin tracer, intact LTK-cells overexpressing GHS-R 1A; settings: 60 min at 37° C.
Text: as §1
For receptor competitive binding studies, iodinated ghrelin was used as a tracer at conditions of about 80% saturation binding. Different concentrations of the test compounds were analyzed for displacement of the tracer. For this purpose, the suspension of intact cells plus tracer mix and different test compound concentrations was layered on top of silicon/paraffin oil, incubated for 60 min at 37° C. and subjected to centrifugation. After freezing in liquid nitrogen the cell pellets were separated from the supernatant by cutting the tubes in the intermediate silicon/paraffin oil section and analyzed by γ-radiation analysis. The amount of unspecific binding was determined by including unlabeled ghrelin at 1 μM final concentration.
as §2, §3

[4] = target: MDR-1 (P-glycoprotein, Pgp) (Homo sapiens (Human), UniProt P08183); assay: Inhibition of MDR1 ATPase (Pgp-Glo assay, SF9 membrane preparations); format: biochemical
Protocol: For detection of MDR-1 (P-glycoprotein, Pgp) ATPase activity commercially available membrane preparations of MDR-1 overexpressing SF9 insect cells (SB-MDR1-Sf9-ATPase Membrane; 2.5 mg/500 μL; Solvo/tebu-bio #168SB-MDR1-Sf9-ATPase) were used. Since transport by MDR-1 is ATP-dependent, ATP consumption indicates transport activity of MDR-1. ATP consumption is detected as a decrease in luminescence from a second reaction with a recombinant firefly luciferase by using the Pgp-Glo™ Assay Kit (Promega # V3591).

hERG channel = hERG channel (Homo sapiens (Human), UniProt Q12809); assay: Predictor hERG Fluorescence Polarization Assay; format: binding
Text: The Predictor™ hERG Fluorescence Polarization Assay (Invitrogen, Karlsruhe, GER) determines whether test compounds block the hERG channel [Piper, D. R. et al., Assay Drug Dev Technol. 2008, 6(2):213-23]. The assay uses a membrane fraction containing hERG channel protein (Predictor™ hERG Membrane) and a high-affinity red fluorescent hERG channel ligand, or “tracer” (Predictor™ hERG Tracer Red), in a homogenous, fluorescence polarization (FP)-based format. Compounds that bind to the hERG channel protein (competitors) are identified by their ability to displace the tracer, resulting in a lower fluorescence polarization. The assay was performed according to guidelines of the manufacturer

CYP3A4 = CYP3A4 (Homo sapiens (Human), UniProt P08684); assay: CYP3A4 inhibition in human liver microsomes, direct and metabolism-dependent; format: in vitro ADME
Protocol: Direct and metabolism-dependent inhibition of CYP enzymes are assessed with specific marker substrates by a HPLC-based UV detection method in human liver microsomes. Incubations are carried out as doublets with final concentrations ranging from 0.01 to 200 μM (30 min, 37° C.). Metabolism-dependent inhibition was assessed by incubation for 30 minutes in the presence of NADPH prior to the addition of marker substrate to allow the generation of metabolites. Percent inhibition is plotted against concentration to calculate or extrapolate IC50 values from the sigmoid curve.

[5] = Stability in liver microsomes; format: in vitro ADME, rat; settings: @37° C./1 mg/ml Liver Microsomes, 10 μM
Protocol: Metabolic stability in liver microsomes of different species (in the presence of NADPH, 1 mg/ml microsomal protein) was evaluated at 37° C. over time in triplicates at a test concentration of 10 μM. Loss of parent compound is measured by an HPLC-based UV detection method. For prediction of rat hepatic clearance half-lives (t1/2) were fitted from first-order rate constant k (min^−1) obtained from the slope of time versus In % remaining.

[6] = target: Mouse Ghrelin Receptor (GHS-R 1A) (Mus musculus (Mouse), UniProt Q99P50); assay: Calcium release, antagonist; format: cell-based; settings: 15 minutes preincubation, then ghrelin; read-out: Mouse Ghrelin Receptor Antagonist Calcium Release IC50
Text: as §1, §4, §2
(§5) In the following table 1 results obtained for selected compounds of the invention are presented in comparison to compound 50 disclosed in WO07/020,013. Values given are either single measurements or mean values of up to nine independent experiments performed in duplicate (binding) or quadruplicate (functional assays) measurements.

[7] = target: Rat Ghrelin Receptor (GHS-R 1A) (Rattus norvegicus (Rat), UniProt O08725); assay: Calcium release, antagonist; format: cell-based; settings: 15 minutes preincubation, then ghrelin; read-out: Rat Ghrelin Receptor Antagonist Calcium Release IC50
Text: as §1, §4, §2, §5

[8] = CaCo-2 permeability assay; format: in vitro ADME; settings: human; for Papp A→B at 2 h: a to b, read-out: CaCo-2 Assay Papp ab; for Papp A→B at 2 h / Papp B→A at 2 h: 3 or 5 μM, 2 hours at 37° C.; for Papp B→A at 2 h: b to a, read-out: CaCo-2 Assay Papp ba; for efflux ratio at 2 h: read-out: CaCo-2 Assay ba/ab
Protocol: For the CaCo-2 permeability assay 80.000 CaCo-2 cells (ATCC HTB-37) were seeded in DMEM supplemented with 10% FCS, 1% Penicillin/Streptomycin and 1% non-essential amino acids per 24 well transwell plate (Corning 3397) and were grown for 21 days by changing the media every second day. On day 21 the medium was replaced by HBSS buffer (Invitrogen #14065) supplemented with 0.25% and 1% BSA for the donor and acceptor compartment, respectively. The compounds were added to the respective donor compartment in a concentration of 3 or 5 μM and were incubated for 2 hours at 37° C. The respective compound concentrations were determined by LC-MS analytics using an API 2000. Data analysis was performed as described by Sun and Pang 2008, Drug Metabolism and Disposition 36, 102-123.

[9] = marker substrate testosteron, 30 minutes preincubation with NADPH, read-out: CYP3A4 Inhibition Testosteron Preincubation EC50
[10] = marker substrate testosteron, direct inhibition, human liver microsomes, read-out: CYP3A4 Inhibition Testosteron EC50

Chain of CYP3A4 (P08684 whole entry): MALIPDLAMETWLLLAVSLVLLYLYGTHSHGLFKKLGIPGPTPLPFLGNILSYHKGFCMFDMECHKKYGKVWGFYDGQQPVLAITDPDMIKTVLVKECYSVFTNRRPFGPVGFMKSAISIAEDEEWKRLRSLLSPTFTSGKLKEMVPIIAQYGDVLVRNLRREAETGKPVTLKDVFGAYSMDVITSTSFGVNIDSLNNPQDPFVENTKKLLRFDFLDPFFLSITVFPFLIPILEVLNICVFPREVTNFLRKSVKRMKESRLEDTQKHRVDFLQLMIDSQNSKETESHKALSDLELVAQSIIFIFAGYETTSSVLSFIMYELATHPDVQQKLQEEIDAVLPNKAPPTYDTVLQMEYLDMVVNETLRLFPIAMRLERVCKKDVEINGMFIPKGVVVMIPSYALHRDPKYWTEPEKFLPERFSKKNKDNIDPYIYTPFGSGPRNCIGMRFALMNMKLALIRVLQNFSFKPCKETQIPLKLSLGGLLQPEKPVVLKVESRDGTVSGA
Chain of hERG channel (Q12809 whole entry): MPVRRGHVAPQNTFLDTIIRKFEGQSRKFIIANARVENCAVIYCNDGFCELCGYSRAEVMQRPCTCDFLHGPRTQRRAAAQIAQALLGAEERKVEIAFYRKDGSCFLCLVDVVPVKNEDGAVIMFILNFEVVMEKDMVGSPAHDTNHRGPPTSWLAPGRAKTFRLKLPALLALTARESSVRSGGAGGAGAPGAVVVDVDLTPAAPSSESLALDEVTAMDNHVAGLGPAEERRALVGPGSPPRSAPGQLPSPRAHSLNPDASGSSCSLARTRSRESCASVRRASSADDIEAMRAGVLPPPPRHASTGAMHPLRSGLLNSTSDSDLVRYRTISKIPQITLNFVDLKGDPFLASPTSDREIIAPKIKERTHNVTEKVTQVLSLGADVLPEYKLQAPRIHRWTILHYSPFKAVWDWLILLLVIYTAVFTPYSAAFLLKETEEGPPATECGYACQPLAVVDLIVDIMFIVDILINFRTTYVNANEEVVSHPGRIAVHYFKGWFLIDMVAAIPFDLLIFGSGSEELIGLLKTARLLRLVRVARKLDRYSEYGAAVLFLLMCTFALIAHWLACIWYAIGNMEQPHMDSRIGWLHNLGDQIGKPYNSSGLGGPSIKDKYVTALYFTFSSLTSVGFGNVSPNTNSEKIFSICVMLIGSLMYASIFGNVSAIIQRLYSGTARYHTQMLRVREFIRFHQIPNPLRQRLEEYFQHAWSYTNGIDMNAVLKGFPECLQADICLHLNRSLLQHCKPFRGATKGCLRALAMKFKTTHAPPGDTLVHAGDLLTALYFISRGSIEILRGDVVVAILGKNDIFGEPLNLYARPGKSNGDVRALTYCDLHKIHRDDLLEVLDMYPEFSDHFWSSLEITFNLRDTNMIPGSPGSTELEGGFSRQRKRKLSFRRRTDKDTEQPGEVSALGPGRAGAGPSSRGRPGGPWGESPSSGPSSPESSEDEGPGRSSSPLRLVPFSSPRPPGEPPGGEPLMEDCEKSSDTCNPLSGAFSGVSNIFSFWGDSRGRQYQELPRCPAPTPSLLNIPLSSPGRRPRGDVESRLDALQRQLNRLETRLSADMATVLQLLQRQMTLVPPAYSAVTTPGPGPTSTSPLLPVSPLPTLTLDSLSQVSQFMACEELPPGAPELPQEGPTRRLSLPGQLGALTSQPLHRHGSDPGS
Chain of MDR-1 (P-glycoprotein, Pgp) (P08183 whole entry): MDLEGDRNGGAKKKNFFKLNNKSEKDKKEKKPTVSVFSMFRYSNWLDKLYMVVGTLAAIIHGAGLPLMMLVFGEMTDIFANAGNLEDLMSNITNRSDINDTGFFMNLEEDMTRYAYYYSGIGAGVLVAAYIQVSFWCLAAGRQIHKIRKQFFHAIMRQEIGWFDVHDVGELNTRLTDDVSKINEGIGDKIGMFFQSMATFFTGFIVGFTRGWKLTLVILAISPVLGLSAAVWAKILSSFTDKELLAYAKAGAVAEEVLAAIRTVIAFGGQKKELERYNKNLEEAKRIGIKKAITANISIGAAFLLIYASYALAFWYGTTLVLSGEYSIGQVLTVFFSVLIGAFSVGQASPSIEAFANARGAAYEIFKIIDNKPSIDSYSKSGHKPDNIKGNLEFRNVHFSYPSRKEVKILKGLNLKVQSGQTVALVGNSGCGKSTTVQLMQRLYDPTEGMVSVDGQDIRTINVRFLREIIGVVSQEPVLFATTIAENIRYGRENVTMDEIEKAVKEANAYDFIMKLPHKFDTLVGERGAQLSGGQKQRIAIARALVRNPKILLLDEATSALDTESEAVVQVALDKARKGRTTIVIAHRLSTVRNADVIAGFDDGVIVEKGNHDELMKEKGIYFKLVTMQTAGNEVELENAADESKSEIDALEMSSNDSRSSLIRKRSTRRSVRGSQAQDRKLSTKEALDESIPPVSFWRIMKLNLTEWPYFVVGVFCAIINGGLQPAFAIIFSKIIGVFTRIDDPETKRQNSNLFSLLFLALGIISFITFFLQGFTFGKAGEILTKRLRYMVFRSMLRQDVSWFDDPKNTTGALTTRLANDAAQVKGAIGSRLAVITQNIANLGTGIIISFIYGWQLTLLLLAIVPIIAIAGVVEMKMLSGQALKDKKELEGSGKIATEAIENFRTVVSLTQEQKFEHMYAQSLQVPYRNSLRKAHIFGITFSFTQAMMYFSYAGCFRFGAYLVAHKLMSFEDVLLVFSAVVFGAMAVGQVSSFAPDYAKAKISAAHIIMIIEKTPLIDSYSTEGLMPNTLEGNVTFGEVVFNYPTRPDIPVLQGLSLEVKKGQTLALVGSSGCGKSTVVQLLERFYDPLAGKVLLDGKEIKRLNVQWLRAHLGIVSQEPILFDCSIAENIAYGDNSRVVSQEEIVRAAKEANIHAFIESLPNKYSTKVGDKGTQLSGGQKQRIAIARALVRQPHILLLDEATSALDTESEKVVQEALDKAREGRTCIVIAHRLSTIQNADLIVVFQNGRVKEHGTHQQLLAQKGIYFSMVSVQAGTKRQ
T1 sequence (Q92847 whole entry): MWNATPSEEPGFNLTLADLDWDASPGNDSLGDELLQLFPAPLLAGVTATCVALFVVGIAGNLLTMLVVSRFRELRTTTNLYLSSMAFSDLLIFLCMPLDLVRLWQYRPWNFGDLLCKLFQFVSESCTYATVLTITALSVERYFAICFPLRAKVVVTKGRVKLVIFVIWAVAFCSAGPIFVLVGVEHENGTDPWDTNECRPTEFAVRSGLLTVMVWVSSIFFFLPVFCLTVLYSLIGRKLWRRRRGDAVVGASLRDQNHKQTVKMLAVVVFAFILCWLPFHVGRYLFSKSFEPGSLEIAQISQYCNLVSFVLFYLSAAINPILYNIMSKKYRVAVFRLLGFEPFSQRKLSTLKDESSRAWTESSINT
Chain of Mouse Ghrelin Receptor (GHS-R 1A) (Q99P50 whole entry): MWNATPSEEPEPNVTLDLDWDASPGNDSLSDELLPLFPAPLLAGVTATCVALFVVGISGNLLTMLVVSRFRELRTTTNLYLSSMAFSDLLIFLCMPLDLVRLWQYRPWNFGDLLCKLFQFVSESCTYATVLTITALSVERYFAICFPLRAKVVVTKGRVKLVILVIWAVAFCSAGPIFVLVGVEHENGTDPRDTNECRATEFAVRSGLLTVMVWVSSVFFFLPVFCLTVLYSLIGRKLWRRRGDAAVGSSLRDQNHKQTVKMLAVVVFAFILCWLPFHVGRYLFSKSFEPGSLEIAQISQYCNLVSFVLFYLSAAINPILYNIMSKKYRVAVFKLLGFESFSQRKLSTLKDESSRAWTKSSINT
Chain of Rat Ghrelin Receptor (GHS-R 1A) (O08725 whole entry): as the sequence (Q99P50 whole entry) above, with S30P, S249A counted along it

Compound | IC50 [1] | IC50 [2] | IC50 [3] | EC50 [4] | hERG Predictor EC50 (hERG channel) | EC50 (CYP3A4; [9]) | EC50 (CYP3A4; [10]) | Stability in Liver Microsomes Rat % Remaining after 1 h Incubation [5] | IC50 [6] | IC50 [7] | EC50 (CYP3A4; marker substrate midazolam, 30 minutes preincubation with NADPH, read-out: CYP3A4 Inhibition Midazolam Preincubation EC50) | EC50 (CYP3A4; marker substrate midazolam, direct inhibition, human liver microsomes, read-out: CYP3A4 Inhibition Midazolam EC50) | Papp A→B at 2 h [8] | Papp B→A at 2 h [8] | efflux ratio at 2 h [8] | Inhibition of MDR1 ATPase EC50 [4]
CCOC(=O)Cc1nnc([C@@H](Cc2c[nH]c3ccccc23)NC(=O)c2cccnc2)n1Cc1ccc(OC)cc1 [Cpd 1, [5-{(R)-2-(1H-Indol-3-yl)-1-[(pyridine-3-carbonyl)-amino]-ethyl}-4-(4-methoxy-benzyl)-4H-[1,2,4]triazol-3-yl]-acetic acid ethyl ester] | 12.8 nM | 3 nM |  |  |  |  |  |  |  |  |  |  |  |  |  | 
COc1ccc(Cn2c([C@@H](Cc3c[nH]c4ccccc34)NC=O)nnc2[C@@H](Cc2c[nH]c3ccccc23)NC(=O)C(C)(C)N)cc1.O=C(O)C(F)(F)F [Cpd 9, 2-Amino-N-[(R)-1-[5-[(R)-1-formylamino-2-(1H-indol-3-yl)-ethyl]-4-(4-methoxy-benzyl)-4H-[1,2,4]triazol-3-yl]-2-(1H-indol-3-yl)-ethyl]-2-methyl-propionamide] | 58.6 nM | 32.6 nM | 3.2 nM | 836 nM | no full dose | 1500 nM | 10000 to 30000 nM | 54.8% |  |  |  |  |  |  |  | 
COc1ccc(Cn2c([C@@H](Cc3c[nH]c4ccccc34)NC(C)=O)nnc2[C@@H](Cc2c[nH]c3ccccc23)NC(=O)c2ccccn2)cc1.O=C(O)C(F)(F)F [Cpd 3, Pyridine-2-carboxylic acid [(R)-1-[5-[(R)-1-acetylamino-2-(1H-indol-3-yl)-ethyl]-4-(4-methoxy-benzyl)-4H-[1,2,4]triazol-3-yl]-2-(1H-indol-3-yl)-ethyl]-amide] | 2.2 nM | 2.5 nM | 0.6 nM | 38600 nM | no inhibition |  |  | 38.5% | 29.2 nM | 29.9 nM | 980 nM | 3200 nM | 0.37 ± 0.02 ×10⁻⁶ cm/s | 17.2 ± 0.42 ×10⁻⁶ cm/s | 51.9 | 
COc1ccc(Cn2c([C@@H](Cc3ccccc3)NC(C)=O)nnc2[C@@H](Cc2c[nH]c3ccccc23)NC(=O)CO)cc1.O=C(O)C(F)(F)F [Cpd 6, N-[(R)-1-[5-((R)-1-Acetylamino-2-phenyl-ethyl)-4-(4-methoxy-benzyl)-4H-[1,2,4]triazol-3-yl]-2-(1H-indol-3-yl)-ethyl]-2-hydroxy-acetamide] | 7.8 nM | 2.1 nM | 3 nM |  | no inhibition | 1400 nM | 34300 nM | 27.1% |  |  |  |  |  |  |  | no inhibition
COc1ccc(Cn2c([C@@H](Cc3c[nH]c4ccccc34)NC(C)=O)nnc2[C@@H](Cc2c[nH]c3ccccc23)NC(=O)C(C)(C)N)cc1.O=C(O)C(F)(F)F [Cpd 8, N-[(R)-1-[5-[(R)-1-Acetylamino-2-(1H-indol-3-yl)-ethyl]-4-(4-methoxy-benzyl)-4H-[1,2,4]triazol-3-yl]-2-(1H-indol-3-yl)-ethyl]-2-amino-2-methyl-propionamide] | 22.4 nM | 19.1 nM | 1.4 nM | 196000 nM | no inhibition | 900 nM | 31200 nM | 64.3% | 363 nM | 1050 nM |  |  | 0.08 ± 0.08 ×10⁻⁶ cm/s | 0.74 ± 0.03 ×10⁻⁶ cm/s | 9.25 | 
COc1ccc(Cn2c(CCc3c[nH]c4ccccc34)nnc2[C@@H](Cc2ccc3ccccc3c2)NC(=O)OC(C)(C)C)cc1.O=C(O)C(F)(F)F [Cpd 15, {(R)-1-[5-[2-(1H-Indol-3-yl)-ethyl]-4-(4-methoxy-benzyl)-4H-[1,2,4]triazol-3-yl]-2-naphthalen-2-yl-ethyl}-carbamic acid tert-butyl ester] | 24.9 nM | 39.9 nM | 16.5 nM | 16300 nM |  |  |  | 37.8% |  |  |  |  |  |  |  | 
COc1ccc(Cn2c([C@@H](Cc3ccccc3)NC(C)=O)nnc2[C@@H](Cc2c[nH]c3ccccc23)NC(=O)[C@@H]2CNCCO2)cc1.O=C(O)C(F)(F)F [Cpd 7, (S)-Morpholine-2-carboxylic acid [(R)-1-[5-((R)-1-acetylamino-2-phenyl-ethyl)-4-(4-methoxy-benzyl)-4H-[1,2,4]triazol-3-yl]-2-(1H-indol-3-yl)-ethyl]-amide] | 9.5 nM | 3.8 nM | 3.4 nM | 1080 nM | no inhibition | 1100 nM | 27000 nM | 82.7% |  |  |  |  |  |  |  | 
